For 87 compounds, melting point results are on record in a melting point compilation (Tetko et al.; mined from patent text by program, amines drawn as free bases though some values may be those of a salt).

The structures appear in SMILES notation.

Usually melting point stands for the temperature, or range, at which the solid turns liquid.

As for `COC(=O)c1nc(OC)n(C)c1C(=O)OC`, the melting point was 62 to 63 °C. To `COC1C(OC(=O)c2ccccc2)C(COC(=O)c2ccccc2)OC1n1cc(C)c(=O)[nH]c1=O` (configuration not stated) belongs 128 to 130 °C; to `O=S1(=O)NCN(C2CC2)c2c(F)cc(F)c(F)c21`, 149 to 151 °C. For the compound `CCN(CC)CCOc1ccc(NC(=O)C#Cc2ccc(Cl)cc2Cl)cc1Cl`, the melting point lay in the range of 98 to 100 °C. The compound `Cn1cnc(S(=O)(=O)Nc2ccc(C(c3c(O)c4c(oc3=O)CCCCCC4)C3CC3)cc2)c1` (configuration not stated) returned a melting point of 238 to 242 °C. Turning to `COc1ccnc(CCc2nc3cc(-c4ccc(S(=O)(=O)NCc5ccccc5)cc4)cnc3[nH]2)c1`, the melting point was in the range of 211 to 212 °C. Compound `CCCNC(=O)C(=CN(C)C)C(=O)c1ccccc1Cl` displayed a melting point of 76 to 78 °C. With `CC1(C)CCC(O)(CCN2C(=O)CSC2CCCc2ccc(C(=O)O)cc2)CC1` (configuration not stated), the melting point was in the range of 142 to 143 °C. With `CCOC(=O)c1cc(NCc2ccccc2)c(Nc2ccccc2)c(S(=O)(=O)Nc2ccccc2)c1`, the melting point lay within 166 to 167 °C.

The compound `CCOC(=O)c1cn(-c2cccc(OC)c2)cn1` displayed a melting point of 95 to 96 °C. Consider `COC(=O)c1ccc(F)c2c1CC(N(CCCCc1c[nH]c3ccc(F)cc13)C1CCC1)CO2` (configuration not stated), for which the melting point came out at 115 °C. To `COc1cc(-c2ncn(C)c2-c2ccc(C(F)(F)F)cc2)cc(OC)c1OC` belongs 168 °C; to `CC(O)(C(=O)Nc1ccc(S(=O)(=O)c2ccccc2)cc1[N+](=O)[O-])C(F)(F)F` (configuration not stated), 191 to 192 °C.

Turning to `CC(=O)Nc1ccc(Nc2ccccc2[N+](=O)[O-])cc1`, the melting point lay within 164 to 166 °C. To `COc1ccccc1-n1c(-c2cc(-c3ccccc3)c(N3CCOCC3)s2)nc2ccccc2c1=O` belongs 152 to 154 °C; to `O=C(Cc1ccc2ccccc2c1)N1CC=C(c2cccc(C(F)(F)F)c2)CC1`, 125 to 130 °C; to `Cc1cc(C(=O)N2Cc3cccn3Cc3ccccc32)ccc1C1=CCCCC1C(C)(C)C` (configuration not stated), 127 to 129 °C. To `CN1CC(=O)Nc2cccnc2C1=O` belongs 272 to 274 °C; to `O=C1c2ccc(O)cc2C(=O)N1c1ccc(C2(c3ccc(N4C(=O)c5ccc(O)cc5C4=O)cc3)c3ccccc3-c3ccccc32)cc1`, above 300 °C; to `COc1ccc2c(c1)c(CCOC(=O)c1cc(O)c3c(c1)C(=O)c1cccc(O)c1C3=O)c(C)n2C(=O)c1ccc(Cl)cc1`, 139 to 146 °C. To `CCOC(=O)c1ccc2cccc([N+](=O)[O-])c2c1` belongs 120 °C. In the case of `C#CCn1nc(-c2ccc(SC)cc2)c(-c2ccc(F)cc2)c1C(F)(F)F`, the melting point fell in the range of 136 to 138 °C. To `CC(C)N1CCC(n2nc(-c3c(-c4ccccc4)nn4ccccc34)ccc2=O)CC1` belongs 158 °C; to `COc1ccc(C)cc1NC(=O)Nc1ccc(N2CCN(C(=O)C3CC4CCC3C4)CC2)cc1` (configuration not stated), 126 to 128 °C. Consider `CCCCCCCCC#CCC#CCC#CCCCC(=O)Nc1ccc(O)cc1`, for which the melting point is 121 °C. To `COc1c2c(cc3c(C)cc(=O)oc13)CC(C)O2` (configuration not stated) belongs 113 to 115 °C; to `O=C(O)Cc1ncc2c(n1)-c1ccc(Cl)cc1C(c1ccccc1F)=NC2`, 138 to 140 °C. Take `NC(=O)NN(C(=O)c1ccccc1)c1ccccn1`: the melting point was determined as 206 °C. Compound `Nc1ccccc(Br)c1=O` returned a melting point of 133 to 135 °C.

`N#Cc1c(-c2ccc(Cl)c(Cl)c2)cc(C2CC2)nc1Cl`: the melting point is 158 to 160 °C. As to `C=CC(C)OC(=O)c1c(C)nc2c(cnn2CCCCC)c1N` (configuration not stated), the melting point was 64.6 to 67.2 °C. Take `Cc1ccc(-c2ccc3c(c2)C=C(C(=O)Nc2ccc(CS(=O)c4ccccc4)cc2)CCO3)cc1` (configuration not stated): the melting point lay within 127 to 128 °C. To `CC(C)c1nn(-c2ccc(Br)cn2)cc1CCCO` belongs 96 to 97 °C; to `CCOc1cc(CCC2OC(=O)NC2=O)ccc1OCc1ccccc1` (configuration not stated), 143 to 144 °C. To `CC(C)COC(=O)Nc1cc(F)c(C2=CCSCC2)c(F)c1` belongs 136 to 137 °C; to `CCOC(=O)CNC(=O)[C@H](CSCc1ccccc1)NC(=O)OCc1ccccc1`, 93 to 95 °C.

`CCOCc1cc2ccc(OC)cc2oc1=O` displayed a melting point of 64 to 66 °C. To `CCOC(=O)Cc1csc(NS(=O)(=O)c2ccccc2)n1` belongs 129 to 130 °C; to `CC(=NOCC(=O)O)c1ccc(NS(C)(=O)=O)c(Oc2ccc(F)cc2F)c1`, 174 to 175 °C. To `Cc1cccc(-c2nc(N)sc2-c2ccnc(-c3ccc(OCCN4CCCC4)cc3)c2)n1` belongs 176 to 178 °C; to `O=C(O)c1ccc2c(c1)S(=O)(=O)c1ccccc1CC2`, 248 to 250 °C. With `CCCc1ncc(/C=C(\Cc2cccs2)c2nnn[nH]2)n1Cc1ccccc1Cl`, the melting point lay in the range of 174 to 175 °C. To `COc1cc(C=C2C(=O)CCc3cc(OC)c(OC)cc32)c([N+](=O)[O-])cc1OC` belongs 65 to 66 °C. Compound `Cc1cc(-n2cccn2)c2cccc(OCc3c(Cl)ccc(S(=O)(=O)N4CCC[C@H]4CO)c3Cl)c2n1` returned a melting point of 65 °C. Consider `CCOc1nc2c(nc1C(=O)Nc1nccs1)c(C)nn2CC`, for which the melting point was 158 to 159 °C.

Take `O=c1[nH]c2ncc(-c3ccc(CO)cc3)nc2n1CC1CCCCC1`: the melting point fell in the range of 275 to 277 °C. To `Cc1nc(-c2ccc(N)c(C#N)c2)c[nH]1` belongs 89 to 91 °C; to `COCC1=C(C)C(=O)C(OC)=C(OC)C1=O`, 31 to 36 °C; to `O=C(Nc1nnc[nH]1)c1ccc2ccccc2c1`, 191 to 192 °C.

Compound `CSC(=CC(=O)C(F)(F)F)SC` registered a melting point of 97 °C. As to `Brc1ccc2c(c1)C(c1ccccn1)=NCc1nnc(Br)n1-2`, the melting point lay in the range of 236 to 238 °C. To `CC(=O)NC[C@H]1CN(c2ccc(N3CCC(=C(C)C#N)CC3)c(F)c2)C(=O)O1` belongs 181 to 182 °C; to `CCOC(=O)c1cn(CC)c2nc(Cl)ncc2c1=O`, 156 °C. To `C=CC(c1ncc([N+](=O)[O-])n1C)N(C)C` (configuration not stated) belongs 110 to 113 °C; to `CC(C)C[C@H](N)C(=O)NCCNC(=O)OCc1ccccc1`, 148 to 149 °C.

As to `CC(C(=O)O)c1cccc(NC(=O)NC2N=C(c3ccccc3F)c3ccccc3N(CC(=O)N3CC4CCC(CC4)C3)C2=O)c1` (racemic), the melting point fell in the range of 187 to 204 °C. In turn, `O=c1[nH]c(-c2ccccc2)ncc1[N+](=O)[O-]` displayed a melting point of 264 to 266 °C. Compound `N#Cc1ncc(Sc2ccccc2)nc1C#N` gave a melting point of 109 to 112 °C. To `CC(C)c1nc(O)c(Br)c(O)n1` belongs above 250 °C. Take `CC(=O)CCC1(C(N)=O)c2ccccc2-c2ccccc21`: the melting point fell in the range of 125 to 128 °C. To `CC(C)(O)Cn1cnc2c1c1ccccc1n1nnnc21` belongs 246 to 247 °C.

The compound `O=C(CCCCCCSc1ccccc1)c1ncco1` came in with a melting point of 39 to 40 °C. To `CCCc1nn(-c2ccc(C(F)(F)F)cn2)cc1CCCOc1c(CC)cccc1CC(=O)O` belongs 146 to 147 °C; to `CC(C)OC12NC(=O)C(C)(C(C)C)N1C(=O)c1cccnc12` (configuration not stated), 158 to 160 °C.

Compound `CC(C(=O)O)c1ccc(-n2cc(Br)cn2)cc1` (configuration not stated) displayed a melting point of 154 to 155 °C. `O=[N+]([O-])c1ccccc1-c1ccc(CNc2nc(C(F)(F)F)nc3c2CCCC3)cc1` displayed a melting point of 150 to 151 °C. To `CCOC(=O)C(Cl)=Cc1cc([N+](=O)[O-])ccc1Cl` belongs 91 °C; to `N#CC1=C2C=CC=c3ccccc3=C2CC=C1`, 109 to 111 °C. To `COC(=O)c1cc2cc(C=O)c3ccccc3c2s1` belongs 208 °C; to `CC(=O)NCC(C)(C)c1ccc2nc(-c3c[nH]cn3)[nH]c2c1`, 235 to 237 °C; to `CS(=O)(=O)Nc1cnn(CCCCN2CCN(c3ncccn3)CC2)c1`, 132 °C. To `FC(F)(F)c1c[nH]c(-c2ccc(OCC3CO3)cc2)n1` (configuration not stated) belongs 152 to 154 °C. Consider `CCc1cccc(-n2ncc(C(=O)O)c2C(N)=O)c1`, for which the melting point is 176 to 178 °C.

As to `CC(C)OC(=O)Cn1c(=O)n(C)c(=O)n(-c2cc(N=c3oc(=O)n4n3CCCC4)c(F)cc2Cl)c1=O`, the melting point was in the range of 115 to 120 °C. Regarding `CNc1nc(-c2cccc(-c3ccc(S(C)=O)cc3)c2)c2cc(OC)c(OC)cc2n1` (configuration not stated), the melting point is 153 to 155 °C. `CCOP(=O)(OCC)C1(P(=O)(OCC)OCC)CC(C(=O)c2ccccc2[N+](=O)[O-])=NN1` returned a melting point of 111 to 112 °C.

Consider `Cc1ccc2c3c(ccc2n1)OCC(CN1CC=C(c2c[nH]c4ccccc24)CC1)O3` (configuration not stated), for which the melting point is 210 °C. In the case of `COc1ccc2ccc(N3C(=O)c4ccccc4C3OCC(=O)OC(C)(C)C)nc2n1` (configuration not stated), the melting point worked out at 188 °C. For the compound `Cc1c(C)c(N2Cc3cc4c(cc3C2)OCO4)c(C)c2c1OC(C)(C)C2c1ccccc1` (configuration not stated), the melting point is 245 to 248 °C. Turning to `CC(=O)NCC1CC(c2ccc(-n3ccc(C=NO)c3)c(F)c2)=NO1` (single isomer, unassigned; (-)), the melting point is 216 to 217 °C.

In turn, `ON=C(c1cc(F)cc(F)c1)c1cccc2nc(N[C@@H]3CCc4ccccc43)ccc12` displayed a melting point of 120 °C. Compound `CCOC(=O)C1CCc2scnc2C1=O` (configuration not stated) yielded a melting point of 81 to 82 °C. To `Cc1cccc(Cl)c1C(N)=NO` belongs 136 to 137 °C. To `CC(=O)OCC1OC(n2c(Cl)nc3cc(F)c(F)cc32)C(OC(C)=O)C1OC(C)=O` (configuration not stated) belongs 90 to 91 °C; to `COC(=O)c1ccc(NC(=O)c2cc(C(C)C)c(C(C)C)s2)cc1Cl`, 153 to 154 °C; to `Cc1cc(OS(=O)(=O)c2ccccc2)cc2c(C3CCN(C)CC3)c[nH]c12`, 118 °C. `O=C(O)COc1ccc(OCC2CCN(c3ccncc3)CC2)cc1` gave a melting point of 278 to 281 °C.
